The target of the test is T1, ERR1 (also known as ERR-α or ERR-1) (Homo sapiens, UniProt P11474).
T1 sequence (P11474 193-421 limits assumed): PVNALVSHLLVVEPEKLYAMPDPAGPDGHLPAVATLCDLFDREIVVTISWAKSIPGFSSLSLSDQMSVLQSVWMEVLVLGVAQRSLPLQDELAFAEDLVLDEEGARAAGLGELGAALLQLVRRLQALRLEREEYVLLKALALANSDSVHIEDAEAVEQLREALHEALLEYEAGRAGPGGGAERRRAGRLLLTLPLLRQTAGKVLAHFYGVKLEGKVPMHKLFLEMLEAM
Nature of the test: TR-FRET assay (disruption of co-activator peptide binding). In kind it is biochemical. The note with it: 6His-tagged ERR1 LBD, GST-hSRC2 co-activator polypeptide; average of 3 independent experiments. The method, boiled down: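 Compound-induced loss of co-activator recruitment, read by time-resolved FRET (excitation 340 nm; 615 and 665 nm emission) after 4-18 h at 25 °C. Reagents: 6 nM ERR1LBD, 6 nM GST-SRC-2, 30 nM Eu cryptate, 7.5 nM XL665, pH 8 Tris buffer. Values: hyperbolic fits averaged over 3 independent runs.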

As a reminder, the EC50 is the midpoint of the concentration-response curve. A high value points to weaker potency. The compound `Cc1nn(Cc2ccc(C(F)(F)F)cc2C(F)(F)F)c2ccc(/C=C3\SC(N4CCN[C@@H](CO)C4)=NC3=O)cc12` [Example 182, 5-[1-(2,4-Bis-trifluoromethyl-benzyl)-3-methyl-1H-indazol-5-ylmethylene]-2-(3-(R)-hydroxymethyl-piperazin-1-yl)-thiazol-4-one] showed an EC50 of 10.8 nM. In other words, the double-digit nanomolar range. The compound `Cc1nn(Cc2ccc(Cl)cc2C(F)(F)F)c2ccc(/C=C3\SC(N4CCN[C@@H](CO)C4)=NC3=O)cc12` [Example 183, 5-[1-(4-Chloro-2-trifluoromethyl-benzyl)-3-methyl-1H-indazol-5-ylmethylene]-2-(3-(R)-hydroxymethyl-piperazin-1-yl)-thiazol-4-one] had an EC50 of 4.9 nM. For `O=C1N=C(N2CCO[C@H](CO)C2)S/C1=C\c1ccc2c(c1)c(Cl)nn2Cc1ccc(C(F)(F)F)cc1C(F)(F)F` [Example 184, 5-[1-(2,4-Bis-trifluoromethyl-benzyl)-3-chloro-1H-indazol-5-ylmethylene]-2-(2-(S)-hydroxymethyl-morpholin-4-yl)-thiazol-4-one], the EC50 came out at 3 nM.

Take `O=C1N=C(N2CCO[C@H](CO)C2)S/C1=C\c1ccc2c(c1)c(Cl)nn2Cc1ccc(Cl)cc1C(F)(F)F` [Example 185, 5-[3-Chloro-1-(4-chloro-2-trifluoromethyl-benzyl)-1H-indazol-5-ylmethylene]-2-(2-(S)-hydroxymethyl-morpholin-4-yl)-thiazol-4-one]: the EC50 was 3 nM. For `O=C1N=C(N2CCN[C@@H](CO)C2)S/C1=C\c1ccc2c(c1)c(Cl)nn2Cc1ccc(Cl)cc1C(F)(F)F` [Example 187, 5-[3-Chloro-1-(4-chloro-2-trifluoromethyl-benzyl)-1H-indazol-5-ylmethylene]-2-(3-(R)-hydroxymethyl-piperazin-1-yl)-thiazol-4-one] the value was 12.7 nM. For `O=C1N=C(N2C[C@@H](F)C[C@H]2C(=O)O)S/C1=C\c1ccc2c(cnn2Cc2ccc(Cl)cc2C(F)(F)F)c1` [Example 189, 1-[5-({1-[4-Chloro-2-(trifluoromethyl)benzyl]-1H-indazol-5-yl}methylidene)-4-oxo-4,5-dihydro-1,3-thiazol-2-yl]-4-(S)-fluoro-L-proline] the value was 24 nM; for `COC(=O)C1CCN(C2=NC(=O)/C(=C/c3ccc4c(cnn4Cc4ccc(C(F)(F)F)cc4C(F)(F)F)c3)S2)CC1` [Example 190, Methyl 1-[5-({1-[2,4-bis(trifluoromethyl)benzyl]-1H-indazol-5-yl}methylidene)-4-oxo-4,5-dihydro-1,3-thiazol-2-yl]piperidine-4-carboxylate], 53 nM.

`O=C1N=C(N2CCC(C(=O)O)CC2)S/C1=C\c1ccc2c(c1)c(I)nn2Cc1ccc(C(F)(F)F)cc1C(F)(F)F` [Example 191, 1-[5-({1-[2,4-Bis(trifluoromethyl)benzyl]-3-iodo-1H-indazol-5-yl}methylidene)-4-oxo-4,5-dihydro-1,3-thiazol-2-yl]piperidine-4-carboxylic acid] returned an EC50 of 3.6 nM. Compared with the last compound, the EC50 is about 15-fold lower. For `C[C@@H]1CN(C)CCN1C1=NC(=O)/C(=C/c2ccc3c(cnn3Cc3ccc(C(F)(F)F)cc3C(F)(F)F)c2)S1` [Example 192, 5-({1-[2,4-Bis(trifluoromethyl)benzyl]-1H-indazol-5-yl}methylidene)-2-(2-(R),4-dimethylpiperazin-1-yl)-1,3-thiazol-4(5H)-one] the value was 16 nM. For `C[C@@H]1CN(C)CCN1C1=NC(=O)/C(=C/c2ccc3c(cnn3Cc3ccc(Cl)cc3C(F)(F)F)c2)S1` [Example 193, 5-({1-[4-Chloro-2-(trifluoromethyl)benzyl]-1H-indazol-5-yl}methylidene)-2-(2-(R),4-dimethylpiperazin-1-yl)-1,3-thiazol-4(5H)-one] the value was 11 nM; for `O=C1N=C(N2CCOC[C@@H]2C(=O)O)S/C1=C\c1ccc2c(cnn2Cc2ccc(Cl)cc2C(F)(F)F)c1` [Example 194, 4-[5-({1-[4-Chloro-2-(trifluoromethyl)benzyl]-1H-indazol-5-yl}methylidene)-4-oxo-4,5-dihydro-1,3-thiazol-2-yl]morpholine-3-(R)-carboxylic acid], 23.5 nM; for `CN1CCN(C2=NC(=O)/C(=C/c3ccc4c(cnn4Cc4ccc(C(F)(F)F)cc4C(F)(F)F)c3)S2)C[C@@H]1CO` [Example 195, 5-({1-[2,4-Bis(trifluoromethyl)benzyl]-1H-indazol-5-yl}methylidene)-2-[3-(R)-(hydroxymethyl)-4-methylpiperazin-1-yl]-1,3-thiazol-4(5H)-one], 20 nM. For `CN1CCN(C2=NC(=O)/C(=C/c3ccc4c(cnn4Cc4ccc(Cl)cc4C(F)(F)F)c3)S2)C[C@@H]1CO` [Example 196, 5-({1-[4-Chloro-2-(trifluoromethyl)benzyl]-1H-indazol-5-yl}methylidene)-2-[3-(R)-(hydroxymethyl)-4-methylpiperazin-1-yl]-1,3-thiazol-4(5H)-one] the value was 16 nM; for `COCCN1CCN(C2=NC(=O)/C(=C/c3ccc4c(cnn4Cc4ccc(Cl)cc4C(F)(F)F)c3)S2)[C@H](C)C1` [Example 199, 5-({1-[4-Chloro-2-(trifluoromethyl)benzyl]-1H-indazol-5-yl}methylidene)-2-[4-(2-methoxyethyl)-2-(R)-methylpiperazin-1-yl]-1,3-thiazol-4(5H)-one], 11 nM; for `O=C1N=C(N2CCN[C@H](CO)C2)S/C1=C\c1ccc2c(cnn2Cc2ccc(C(F)(F)F)cc2C(F)(F)F)c1` [Example 200, 5-({1-[2,4-Bis(trifluoromethyl)benzyl]-1H-indazol-5-yl}methylidene)-2-[3-(S)-(hydroxymethyl)piperazin-1-yl]-1,3-thiazol-4(5H)-one], 13 nM. In the case of `NCC1CN(C2=NC(=O)/C(=C/c3ccc4c(cnn4Cc4ccc(C(F)(F)F)cc4C(F)(F)F)c3)S2)CCO1` (stereo not shown) [Example 201, 2-[2-(Aminomethyl)morpholin-4-yl]-5-({1-[2,4-bis(trifluoromethyl)benzyl]-1H-indazol-5-yl}methylidene)-1,3-thiazol-4(5H)-one], it took 47 nM to reach a half-maximal effect (EC50). Compared with the last compound, the EC50 is about 3.6-fold higher. In turn, `C[C@@H]1CN(C2CN(C3=NC(=O)/C(=C/c4ccc5c(cnn5Cc5ccc(C(F)(F)F)cc5C(F)(F)F)c4)S3)C2)C[C@H](C)O1` [Example 202, 5-({1-[2,4-Bis(trifluoromethyl)benzyl]-1H-indazol-5-yl}methylidene)-2-[3-(2,6-cis-dimethylmorpholin-4-yl)azetidin-1-yl]-1,3-thiazol-4(5H)-one] gave an EC50 of 59.7 nM. On to `C[C@@H]1CN(C2CN(C3=NC(=O)/C(=C/c4ccc5c(cnn5Cc5ccc(Cl)cc5C(F)(F)F)c4)S3)C2)C[C@H](C)O1` [Example 203, 5-({1-[4-Chloro-2-(trifluoromethyl)benzyl]-1H-indazol-5-yl}methylidene)-2-[3-(2,6-cis-dimethylmorpholin-4-yl)azetidin-1-yl]-1,3-thiazol-4(5H)-one], for which the EC50 came to 38.8 nM. For `O=C1N=C(N2CC(N3CCOCC3)C2)S/C1=C\c1ccc2c(cnn2Cc2ccc(C(F)(F)F)cc2C(F)(F)F)c1` [Example 204, 5-({1-[2,4-Bis(trifluoromethyl)benzyl]-1H-indazol-5-yl}methylidene)-2-(3-morpholin-4-ylazetidin-1-yl)-1,3-thiazol-4(5H)-one] the value was 42 nM; for `O=C1N=C(N2CC(N3CCOCC3)C2)S/C1=C\c1ccc2c(cnn2Cc2ccc(Cl)cc2C(F)(F)F)c1` [Example 205, 5-({1-[4-Chloro-2-(trifluoromethyl)benzyl]-1H-indazol-5-yl}methylidene)-2-(3-morpholin-4-ylazetidin-1-yl)-1,3-thiazol-4(5H)-one], 30 nM; for `O=C1N=C(N2CCN[C@H](CO)C2)S/C1=C\c1ccc2c(cnn2Cc2ccc(Cl)cc2C(F)(F)F)c1` [Example 206, 5-({1-[4-Chloro-2-(trifluoromethyl)benzyl]-1H-indazol-5-yl}methylidene)-2-[3-(S)-(hydroxymethyl)piperazin-1-yl]-1,3-thiazol-4(5H)-one], 28 nM. For `CC(C)(C)N1CCN(C2=NC(=O)/C(=C/c3ccc4c(cnn4Cc4ccc(C(F)(F)F)cc4C(F)(F)F)c3)S2)C[C@@H]1CO` [Example 207, 5-({1-[2,4-Bis(trifluoromethyl)benzyl]-1H-indazol-5-yl}methylidene)-2-[4-tert-butyl-3-(R)-(hydroxymethyl)piperazin-1-yl]-1,3-thiazol-4(5H)-one] the value was 38 nM; for `COC[C@H]1CN(C2=NC(=O)/C(=C/c3ccc4c(cnn4Cc4ccc(Cl)cc4C(F)(F)F)c3)S2)CCN1` [Example 208, 5-({1-[4-Chloro-2-(trifluoromethyl)benzyl]-1H-indazol-5-yl}methylidene)-2-[3-(R)-(methoxymethyl)piperazin-1-yl]-1,3-thiazol-4(5H)-one], 6 nM. As for `COC[C@@H]1CN(C2=NC(=O)/C(=C/c3ccc4c(cnn4Cc4ccc(Cl)cc4C(F)(F)F)c3)S2)CCN1` [Example 209, 5-({1-[4-Chloro-2-(trifluoromethyl)benzyl]-1H-indazol-5-yl}methylidene)-2-[3-(S)-(methoxymethyl)piperazin-1-yl]-1,3-thiazol-4(5H)-one], the EC50 was found to be 6 nM.

Consider `COC[C@H]1CN(C2=NC(=O)/C(=C/c3ccc4c(cnn4Cc4ccc(C(F)(F)F)cc4C(F)(F)F)c3)S2)CCN1` [Example 210, 5-({1-[2,4-Bis(trifluoromethyl)benzyl]-1H-indazol-5-yl}methylidene)-2-[3-(R)-(methoxymethyl)piperazin-1-yl]-1,3-thiazol-4(5H)-one], for which the EC50 was 24.8 nM.
